What all share (assay): NCI tumour cell line growth inhibition, 48 h
The test system of experiment [1] is OVCAR-5.
The subject of experiment [2] is TK-10.
Experiment [3] relates to SK-MEL-28.
Experiment [4] relates to UO-31.
Experiment [5] concerns HL-60.
The subject of experiment [6] is ACHN.
In experiment [7] the test system is HT-29.
Experiment [8] concerns NCI-H522.
Experiment [9] has as its system HCT-15.
Experiment [10] concerns A498.
Experiment [11] has as its system CCRF-CEM.
For experiment [12], the system named is M14.
In experiment [13] the test system is NCI-H226.
The subject of experiment [14] is SNB-75.
Experiment [15] concerns IGROV-1.
Experiment [16] relates to COLO 205.
Experiment [17] concerns HOP-92.
Experiment [18] relates to DU-145.
For experiment [19], the system named is OVCAR-4.

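Values below derive from 48-hour exposures of cells grown in 96-well plates, with endpoints linearly interpolated between the two concentrations bracketing the appropriate inhibition level. The concentration for 50% growth inhibition is given as GI50.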 Activity calls are given as the source filed them. Rule as the data show it: active = GI50 up to about 1.1 µM and inactive = higher.

For the molecule `O=C(CC(=O)C(=O)Nc1ccccc1)CC(c1ccccc1)c1c(O)c2ccccc2oc1=O` (stereo unspecified), the GI50 in experiment [1], in experiment [2], in [3], in [4], in [5] and in [6] was > 100 µM (inactive) in each case. Further, the GI50 in experiment [7] is > 100 µM (inactive); in experiment [8] it was > 100 µM (inactive); in experiment [9], greater than 100 µM; in experiment [10], > 100 µM (inactive); in experiment [11], > 100 µM (inactive); in [12], > 100 µM (inactive). The GI50 is > 100 µM (inactive) in experiment [13]; > 100 µM (inactive) in experiment [14]; > 100 µM (inactive) in [15]; > 100 µM (inactive) in experiment [16]; 23.4 µM (inactive) in [17].
As to `Cc1nc2ccc(C(F)(F)F)cc2nc1NCc1ccc(Cl)c(Cl)c1`, the GI50 in experiment [1] was 13.1 µM (inactive); in [2] it was < 0.01 µM (active); in experiment [3], 18.4 µM (inactive); in experiment [4], 15.9 µM (inactive); in experiment [5], 16.7 µM (inactive); in experiment [6], 14.8 µM (inactive). For the same molecule, the GI50 in experiment [7] is 15 µM (inactive); in experiment [8] it was 14.8 µM (inactive); in [9] it was 12.7 µM; in experiment [11], 15.5 µM (inactive); in experiment [13], 18.1 µM (inactive); in [14], 12.9 µM (inactive). In addition, the GI50 in experiment [15] was 16.6 µM (inactive); in experiment [16] it was 15.4 µM (inactive); in [18], 17.9 µM (inactive).
For the molecule `CC(NC(=N)N)C(=O)O` (stereo unspecified), the GI50 in experiment [1], in experiment [2], in [3], in experiment [4], in experiment [6] and in experiment [7] was > 100 µM (inactive) throughout. In addition, the GI50 is > 100 µM (inactive) in experiment [8]; greater than 100 µM in experiment [9]; > 100 µM (inactive) in experiment [10]; > 100 µM (inactive) in [11]; > 100 µM (inactive) in experiment [12]; > 100 µM (inactive) in [13]. Further, the GI50 in experiment [14], in experiment [15], in [19], in experiment [16] and in experiment [18] was > 100 µM (inactive) throughout.
Consider `CSc1nc(SC)c2c(C#N)n[nH]c2n1`, for which the GI50 in experiment [2] was 49.4 µM (inactive); in experiment [3] it was > 100 µM (inactive); in experiment [4], > 100 µM (inactive); in experiment [6] it was > 100 µM (inactive); in experiment [7], > 100 µM (inactive); in experiment [8], > 100 µM (inactive). In addition, the GI50 in experiment [9] was greater than 100 µM; in experiment [10], > 100 µM (inactive); in experiment [11], > 100 µM (inactive); in experiment [12], > 100 µM (inactive); in experiment [13] it was > 100 µM (inactive); in experiment [14], 63.5 µM (inactive). Besides, the GI50 in experiment [15] was > 100 µM (inactive); in experiment [19], > 100 µM (inactive); in [16] it was > 100 µM (inactive); in [17] it was 48.5 µM (inactive).
Regarding `CCOP(=O)(/C=C\n1ccc(N)nc1=O)OCC`, the GI50 in experiment [1], in experiment [2], in experiment [3], in experiment [5], in [6] and in experiment [7] was > 100 µM (inactive) each time. The GI50 in experiment [8] was 47.4 µM (inactive); in experiment [9] it was greater than 100 µM; in experiment [11] it was > 100 µM (inactive); in [12], > 100 µM (inactive); in experiment [13] it was > 100 µM (inactive); in experiment [14] it was > 100 µM (inactive). Moreover, the GI50 in experiment [15], in [19], in [16] and in [18] was > 100 µM (inactive) throughout.
With `Cc1ccc(Cl)c2[nH]c(-c3ccccc3)cc(=O)c12`, the GI50 in experiment [1] is 76.4 µM (inactive); in experiment [2], 47.2 µM (inactive); in experiment [3] it was 39.7 µM (inactive); in [5], 23 µM (inactive); in experiment [6], 30.3 µM (inactive); in [7], 43.5 µM (inactive). The GI50 in experiment [8] was 57.1 µM (inactive); in [9] it was 39.2 µM; in [10] it was 25.6 µM (inactive); in experiment [11], 38.5 µM (inactive); in [12], 39.8 µM (inactive); in experiment [13] it was 31.3 µM (inactive). For the same molecule, the GI50 in experiment [14] was 36.1 µM (inactive); in [15], 33.7 µM (inactive); in experiment [19], 37.8 µM (inactive); in experiment [16], 40.9 µM (inactive); in experiment [18], 43.7 µM (inactive).
For the molecule `S=C(c1c[nH]c2ccccc12)N1CCN(c2ccccc2)CC1`, the GI50 is > 100 µM (inactive) in [1]; > 100 µM (inactive) in experiment [2]; 86.9 µM (inactive) in [3]; > 100 µM (inactive) in experiment [5]; 87.1 µM (inactive) in experiment [6]; 59.6 µM (inactive) in experiment [7]. Moreover, the GI50 in [9] was greater than 100 µM; in experiment [10], > 100 µM (inactive); in experiment [11], > 100 µM (inactive); in experiment [12] it was > 100 µM (inactive); in [13], 7.76 µM (inactive); in experiment [14] it was 0.403 µM (active). Further, the GI50 in [15] was 7.11 µM (inactive); in experiment [16] it was > 100 µM (inactive); in experiment [18], > 100 µM (inactive).
On to `CC(C)c1cc(C(C)C)c(S(=O)(=O)NN)c(C(C)C)c1`, for which the GI50 in experiment [1] was > 100 µM (inactive); in experiment [2] it was > 100 µM (inactive); in experiment [3], > 100 µM (inactive); in experiment [6] it was > 100 µM (inactive); in experiment [7], > 100 µM (inactive); in experiment [9], greater than 100 µM. The GI50 in experiment [10], in experiment [14], in [15], in experiment [19], in experiment [16] and in experiment [17] was > 100 µM (inactive) each time.
For `COC(=O)CCC1=NCC(C)(C)O1`, the GI50 in experiment [1], in [2], in experiment [3], in [4], in experiment [6] and in [7] was > 10 µM (inactive) throughout. In addition, the GI50 in [8] was > 10 µM (inactive); in experiment [9], greater than 10 µM; in experiment [10], > 10 µM (inactive); in [11] it was > 10 µM (inactive); in [12], > 10 µM (inactive); in experiment [13], > 10 µM (inactive). The GI50 is 2.79 µM (inactive) in experiment [14]; > 10 µM (inactive) in [15]; > 10 µM (inactive) in experiment [19]; > 10 µM (inactive) in experiment [16]; > 10 µM (inactive) in experiment [18].
For `O=C1/C(=N/c2ccccc2)Oc2cc(O)ccc21`, the GI50 in experiment [1], in [2], in experiment [3], in experiment [4], in experiment [6] and in [7] was > 100 µM (inactive) throughout. The GI50 in [8] is > 100 µM (inactive); in experiment [9], greater than 100 µM; in experiment [10], > 100 µM (inactive); in [11] it was > 100 µM (inactive); in experiment [12], > 100 µM (inactive); in [13], > 100 µM (inactive). Besides, the GI50 in [14], in [15], in experiment [19], in [16] and in experiment [18] was > 100 µM (inactive) in each case.
In the case of `CCOP(=O)(OCC)C1CC(O)C(=O)N1` (stereo unspecified), the GI50 in experiment [1], in experiment [2], in experiment [3], in experiment [4], in experiment [6] and in experiment [7] was > 100 µM (inactive) throughout. For the same molecule, the GI50 in experiment [9] was greater than 100 µM; in [10], > 100 µM (inactive); in experiment [11], > 100 µM (inactive); in [12] it was > 100 µM (inactive); in [13], > 100 µM (inactive); in experiment [14] it was > 100 µM (inactive). For the same molecule, the GI50 in [15], in experiment [19], in [16] and in experiment [18] was > 100 µM (inactive) each time.
For `CC(=O)OCC1=C(C)C(OC(=O)C(OC(C)=O)[C@@H](NC(=O)c2ccccc2)c2ccccc2)CCC1(C)C` (stereo partly specified), the GI50 in [1], in experiment [2], in [3], in [4], in experiment [5] and in experiment [6] was > 100 µM (inactive) each time. Besides, the GI50 was > 100 µM (inactive) in [7]; greater than 100 µM in experiment [9]; > 100 µM (inactive) in [10]; > 100 µM (inactive) in experiment [11]; > 100 µM (inactive) in experiment [13]; 9.86 µM (inactive) in experiment [14]. Further, the GI50 in experiment [15], in experiment [19], in [16] and in experiment [18] was > 100 µM (inactive) each time.

(Values after ChEMBL document CHEMBL1201862, “PubChem BioAssay data set” (2004).)
